Measurements as given in the NIST ThermoML archive (doi:10.1021/acs.jced.8b01120).
Values joined by “and” are separate entries in the source; they are usually repeats but may differ in a detail not shown here. Equal entries are not always repeated. ± gives the expanded uncertainty stated by the source.

What was measured:
[1] = 100 kPa, Liquid; for speed of sound: Single path-length method; for mass density: Vibrating tube method
[2] = xn = mol fraction of the nth substance listed; conditions: 100 kPa, Liquid; for speed of sound: Single path-length method; for mass density: Vibrating tube method

Row | Compound | speed of sound ([1]; 293.15 K) [m/s] | mass density ([1]; 293.15 K) | speed of sound ([1]; 298.15 K) [m/s] | mass density ([1]; 298.15 K) | speed of sound ([1]; 303.15 K) [m/s] | mass density ([1]; 303.15 K) | speed of sound ([1]; 308.15 K) [m/s] | mass density ([1]; 308.15 K) | speed of sound ([1]; 313.15 K) [m/s] | mass density ([1]; 313.15 K) | speed of sound ([2]; 293.15 K, x2 = 0) [m/s] | mass density ([2]; 293.15 K, x2 = 0) [kg/m3] | speed of sound ([2]; 298.15 K, x2 = 0) [m/s] | mass density ([2]; 298.15 K, x2 = 0) [kg/m3] | speed of sound ([2]; 303.15 K, x2 = 0) [m/s] | mass density ([2]; 303.15 K, x2 = 0) [kg/m3] | speed of sound ([2]; 308.15 K, x2 = 0) [m/s] | mass density ([2]; 308.15 K, x2 = 0) [kg/m3] | speed of sound ([2]; 313.15 K, x2 = 0) [m/s] | mass density ([2]; 313.15 K, x2 = 0) [kg/m3] | further results
1 | CCCCOC(C)=O [butyl ethanoate] | 1211.6 ± 4 | 881.54 ± 2 kg/m3 | 1191.5 ± 4 | 876.399 ± 2 kg/m3 | 1172.4 ± 4 | 871.235 ± 2 kg/m3 | 1153.9 ± 4 | 866.05 ± 2 kg/m3 | 1131.5 ± 4 | 860.84 ± 2 kg/m3 |  |  |  |  |  |  |  |  |  |  | 
2 | CCCCOC(C)=O [butyl ethanoate] + CCCCN(CCCC)CCCC |  |  |  |  |  |  |  |  |  |  | 1211.6 ± 4 | 881.54 ± 2 | 1191.5 ± 4 | 876.399 ± 2 | 1172.4 ± 4 | 871.235 ± 2 | 1153.9 ± 4 | 866.05 ± 2 | 1131.5 ± 4 | 860.84 ± 2 | 
3 | CCOC(C)=O [ethyl acetate] | 1164.3 ± 4 | 900.882 ± 2 kg/m3 | 1142.9 ± 4 | 894.79 ± 2 kg/m3 | 1119.4 ± 4 | 888.656 ± 2 kg/m3 | 1097.2 ± 4 | 882.475 ± 2 kg/m3 | 1075 ± 4 | 876.247 ± 2 kg/m3 |  |  |  |  |  |  |  |  |  |  | 
4 | CCOC(C)=O [ethyl acetate] + CCCCN(CCCC)CCCC |  |  |  |  |  |  |  |  |  |  | 1164.3 ± 4 | 900.882 ± 2 | 1142.9 ± 4 | 894.79 ± 2 | 1119.4 ± 4 | 888.656 ± 2 | 1097.2 ± 4 | 882.475 ± 2 | 1075 ± 4 | 876.247 ± 2 | 
5 | COC(C)=O [methyl ethanoate] | 1180.4 ± 4 | 935.01 ± 2 kg/m3 | 1157.5 ± 4 | 928.458 ± 2 kg/m3 | 1134.9 ± 4 | 921.85 ± 2 kg/m3 | 1109.2 ± 4 | 915.16 ± 2 kg/m3 | 1089.6 ± 4 | 908.49 ± 2 kg/m3 |  |  |  |  |  |  |  |  |  |  | 
6 | COC(C)=O [methyl ethanoate] + CCCCN(CCCC)CCCC |  |  |  |  |  |  |  |  |  |  | 1180.4 ± 4 | 935.01 ± 2 | 1157.5 ± 4 | 928.458 ± 2 | 1134.9 ± 4 | 921.85 ± 2 | 1109.2 ± 4 | 915.16 ± 2 | 1089.6 ± 4 | 908.49 ± 2 | 
7 | CCCCCOC(C)=O [pentyl ethanoate] | 1243 ± 4.1 | 876.248 ± 2 kg/m3 | 1220.7 ± 4.1 | 871.32 ± 2 kg/m3 | 1196.8 ± 4.1 | 865.782 ± 2 kg/m3 | 1174.2 ± 4.1 | 860.581 ± 2 kg/m3 | 1152.3 ± 4.1 | 855.357 ± 2 kg/m3 |  |  |  |  |  |  |  |  |  |  | 
8 | CCCOC(C)=O [propyl ethanoate] | 1190.3 ± 4.5 | 888.964 ± 2.1 kg/m3 | 1164.2 ± 4.5 | 883.369 ± 2.1 kg/m3 | 1145 ± 4.5 | 877.422 ± 2.1 kg/m3 | 1123.7 ± 4.5 | 871.784 ± 2.1 kg/m3 | 1102.3 ± 4.5 | 866.115 ± 2.1 kg/m3 |  |  |  |  |  |  |  |  |  |  | 
9 | CCCOC(C)=O [propyl ethanoate] + CCCCN(CCCC)CCCC |  |  |  |  |  |  |  |  |  |  | 1190.3 ± 4.5 | 888.964 ± 2.1 | 1164.2 ± 4.5 | 883.369 ± 2.1 | 1145 ± 4.5 | 877.422 ± 2.1 | 1123.7 ± 4.5 | 871.784 ± 2.1 | 1102.3 ± 4.5 | 866.115 ± 2.1 | 
10 | CCCCN(CCCC)CCCC [tributylamine] | 1264.2 ± 4 | 777.01 ± 2 kg/m3 and 777.006 ± 2 kg/m3 | 1245.2 ± 4 | 773.283 ± 2 kg/m3 and 773.28 ± 2 kg/m3 | 1226.2 ± 4 | 769.55 ± 2 kg/m3 and 769.552 ± 2 kg/m3 | 1207.4 ± 4 | 765.81 ± 2 kg/m3 and 765.811 ± 2 kg/m3 | 1188.8 ± 4 | 762.06 ± 2 kg/m3 and 762.061 ± 2 kg/m3 |  |  |  |  |  |  |  |  |  |  | 
11 | CCCCN(CCCC)CCCC [tributylamine] + CCCCCOC(C)=O |  |  |  |  |  |  |  |  |  |  |  |  |  |  |  |  |  |  |  |  | speed of sound ([2]; 293.15 K, x1 = 1): 1264.2 ± 4 m/s; mass density ([2]; 293.15 K, x1 = 1): 777.006 ± 2 kg/m3; speed of sound ([2]; 298.15 K, x1 = 1): 1245.2 ± 4 m/s; mass density ([2]; 298.15 K, x1 = 1): 773.283 ± 2 kg/m3; speed of sound ([2]; 303.15 K, x1 = 1): 1226.2 ± 4 m/s; mass density ([2]; 303.15 K, x1 = 1): 769.552 ± 2 kg/m3; speed of sound ([2]; 308.15 K, x1 = 1): 1207.4 ± 4 m/s; mass density ([2]; 308.15 K, x1 = 1): 765.811 ± 2 kg/m3; speed of sound ([2]; 313.15 K, x1 = 1): 1188.8 ± 4 m/s; mass density ([2]; 313.15 K, x1 = 1): 762.061 ± 2 kg/m3
